Measured values taken from patent US20250388565A1, “ESTROGEN RECEPTOR ALPHA DEGRADERS AND METHODS OF USE THEREOF” (Relay Therapeutics, Inc., priority 2022, published 2025).

Target: T1, ERα protein (HiBiT-tagged) in ESR1_HiBiT KI MCF7 cells (Homo sapiens, UniProt P03372)
T1 sequence (P03372 1-595): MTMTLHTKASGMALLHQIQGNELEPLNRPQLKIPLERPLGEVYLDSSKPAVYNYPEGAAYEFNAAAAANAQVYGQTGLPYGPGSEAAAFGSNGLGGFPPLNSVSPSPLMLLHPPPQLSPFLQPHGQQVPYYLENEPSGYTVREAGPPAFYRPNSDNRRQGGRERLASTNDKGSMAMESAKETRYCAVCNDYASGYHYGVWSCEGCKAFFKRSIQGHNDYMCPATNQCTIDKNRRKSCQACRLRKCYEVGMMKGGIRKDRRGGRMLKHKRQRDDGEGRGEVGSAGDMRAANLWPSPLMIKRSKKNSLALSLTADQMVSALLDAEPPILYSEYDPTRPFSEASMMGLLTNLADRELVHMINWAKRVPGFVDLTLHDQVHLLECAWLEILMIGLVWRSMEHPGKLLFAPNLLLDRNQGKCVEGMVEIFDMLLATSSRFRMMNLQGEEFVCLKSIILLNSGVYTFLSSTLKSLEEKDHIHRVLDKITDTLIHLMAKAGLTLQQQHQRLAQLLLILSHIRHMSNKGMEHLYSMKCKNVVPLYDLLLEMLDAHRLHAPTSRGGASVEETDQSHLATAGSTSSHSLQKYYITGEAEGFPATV
Experiment: Nano Glo HiBiT Lytic Degradation Assay
Assay type: cell-based
Settings: 6 hours with compound, 14-point dose response 1:3, bell-shape curve fit, half-maximal effect of first Hill model, read-out: MCF7 ESR1 HiBiT - (DC50)
Procedure, shortened: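 ESR1_HiBiT knock-in MCF7 cells were seeded 24 h before treatment, then exposed to compounds for 6 h at 37° C (14-point 1:3 curves, 10 mM top stock, 0.1% DMSO final, duplicates). HiBiT-ERα was read by lytic LgBiT luminescence, background-subtracted and normalized to DMSO. DC50 was taken from the half-maximal point of the first Hill component of a bell-shaped fit.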

Compared with `O=C1CC[C@H](N2Cc3cc(N4CCN(CC5CCN(c6ccc([C@@H]7c8ccc(O)cc8CO[C@@H]7CC7CC7)cc6)CC5)CC4)ccc3C2=O)C(=O)N1` (single isomer, unassigned) [Compound I-230], `O=C1CC[C@H](N2Cc3cc(N4CCN(CC5CCN(c6ccc([C@@H]7c8ccc(O)cc8CO[C@@H]7C7CC7)cc6)CC5)CC4)ccc3C2=O)C(=O)N1` (single isomer, unassigned) [Compound I-242] is 3300-fold higher in DC50: 1 nM for the first, 3300 nM for the second.

Compared with `Cn1c(=O)n([C@H]2CCC(=O)NC2=O)c2ccc(N3CCN(CC4CCN(c5ccc([C@@H]6c7ccc(O)cc7CO[C@@H]6c6ccccc6)cc5)CC4)CC3)cc21` (single isomer, unassigned) [Compound I-387], `O=C1CC[C@H](N2Cc3cc(N4CCN(CC5CCN(c6ccc([C@H]7c8ccc(O)cc8CO[C@H]7c7ccc(O)cc7)cc6)CC5)CC4)ccc3C2=O)C(=O)N1` (single isomer, unassigned) [Compound I-360] is 2.4-fold higher in DC50: 0.16 nM for the first, 0.38 nM for the second.

Going from `O=C1CC[C@H](N2Cc3cc(N4CCN(CC5CC6CCC(C5)N6c5ccc([C@@H]6c7ccc(O)cc7CC[C@@H]6c6ccccc6)cc5)CC4)ccc3C2=O)C(=O)N1` (single isomer, unassigned) [II-47] to `O=C1CC[C@H](N2Cc3cc(N4CCN(C[C@@H]5CCCN(c6ccc([C@H]7c8ccc(O)cc8CC[C@H]7c7ccccc7)cc6)C5)CC4)ccc3C2=O)C(=O)N1` (single isomer, unassigned) [II-21], the DC50 rises from 2 nM to 173 nM (86-fold).

Going from `O=C1CC[C@H](N2Cc3cc(N4CCN(CC5CCN(c6ccc([C@H]7c8ccc(O)cc8CC[C@H]7c7cccc8c7CCCC8)cc6)CC5)CC4)ccc3C2=O)C(=O)N1` (single isomer, unassigned) [Compound I-61] to `Cc1ccccc1[C@H]1CCc2cc(O)ccc2[C@H]1c1ccc(N2CCC(CN3CCN(c4ccc5c(c4)CN([C@H]4CCC(=O)NC4=O)C5=O)CC3)CC2)cc1` (single isomer, unassigned) [II-34], the DC50 falls from at least 10000 nM to 40 nM.

Going from `O=C1CCC(N2Cc3cc([C@H]4CCN(CC5CCN(c6ccc([C@@H]7c8ccc(O)cc8CC[C@@H]7c7ccccc7)cc6)CC5)CC4(F)F)ccc3C2=O)C(=O)N1` (single isomer, unassigned) [II-92] to `Cc1ccc2c(c1)CC[C@H](c1ccccc1)[C@@H]2c1ccc(N2CCC(CN3CCN(c4ccc5c(c4)CN([C@H]4CCC(=O)NC4=O)C5=O)CC3)CC2)cc1` [Compound I-50, (S)-3-(5-(4-((1-(4-((1R,2S)-6-methyl-2-phenyl-1,2,3,4-tetrahydronaphthalen-1-yl)phenyl)piperidin-4-yl)methyl)piperazin-1-yl)-1-oxoisoindolin-2-yl)piperidine-2,6-dione], the DC50 rises from 6 nM to at least 10000 nM.

Going from `O=C1CC[C@H](N2Cc3cc(N4CCN(CC5CCN(c6ccc([C@H]7c8ccc(O)cc8COC78CCCCC8)cc6)CC5)CC4)ccc3C2=O)C(=O)N1` [Compound I-122, (S)-3-(5-(4-((1-(4-((S)-7′-hydroxyspiro[cyclohexane-1,3′-isochroman]-4′-yl)phenyl)piperidin-4-yl)methyl)piperazin-1-yl)-1-oxoisoindolin-2-yl)piperidine-2,6-dione] to `O=C1CC[C@H](N2Cc3cc(N4CCN(CC5CCN(c6ccc([C@H]7c8ccc(O)cc8CO[C@@]78CCCc7ccccc78)cc6)CC5)CC4)ccc3C2=O)C(=O)N1` (single isomer, unassigned) [Compound I-273], the DC50 falls from at least 10000 nM to 6 nM.

`Cn1nc([C@@H]2CCC(=O)NC2=O)c2ccc(N3CCN(CC4CCN(c5ccc([C@@H]6c7ccc(O)cc7CC[C@@H]6c6ccccc6)cc5)CC4)CC3)cc21` (single isomer, unassigned) [Compound I-296] and `Cn1nc(C2CCC(=O)NC2=O)c2ccc(N3CCN(CC4CCN(c5ccc([C@@H]6c7ccc(O)cc7C(F)(F)C[C@@H]6c6ccccc6)cc5)CC4)CC3)cc21` (single isomer, unassigned) [Compound I-298] are the same in DC50: 1 nM for the first, 1 nM for the second.

First: NC(=O)C(CCC(=O)O)N1Cc2cc(N3CCN(CC4CCN(c5ccc([C@@H]6c7ccc(O)cc7CO[C@@H]6c6ccccc6)cc5)CC4)CC3)ccc2C1=O (some centres unmarked) [Compound I-399]
Second: O=C1CC[C@H](N2Cc3cc(N4CCN(CC5CCN(c6ccc([C@H]7c8ccc(O)cc8CO[C@@H]7c7ccc(O)cc7)cc6)CC5)CC4)ccc3C2=O)C(=O)N1 (single isomer, unassigned) [Compound I-359, (S)-3-(5-(4-((1-(4-((3R*,4R*)-7-hydroxy-3-(4-hydroxyphenyl)isochroman-4-yl)phenyl)piperidin-4-yl)methyl)piperazin-1-yl)-1-oxoisoindolin-2-yl)piperidine-2,6-dione]
The DC50 of the first is higher: at least 10000 nM for the first, 0.16 nM for the second.

First: O=C1CC[C@H](N2Cc3cc(N4CCN(CC5CCN(c6ccc([C@H]7c8ccc(O)cc8CO[C@]78CCc7ccccc78)cc6)CC5)CC4)ccc3C2=O)C(=O)N1 [Compound I-267, (S)-3-(5-(4-((1-(4-((1R,4′S)-7′-hydroxy-2,3-dihydrospiro[indene-1,3′-isochroman]-4′-yl)phenyl)piperidin-4-yl)methyl)piperazin-1-yl)-1-oxoisoindolin-2-yl)piperidine-2,6-dione]
Second: C[C@@H]1C[C@@H](c2ccccc2)[C@@H](c2ccc(N3CCC(CN4CCN(c5ccc6c(c5)CN([C@H]5CCC(=O)NC5=O)C6=O)CC4)CC3)cc2)c2ccc(O)cc21 (single isomer, unassigned) [Compound I-332]
The DC50 of the first is lower: 4 nM for the first, at least 10000 nM for the second.

Compared with `Cc1cc([C@H]2CCc3cc(O)ccc3[C@H]2c2ccc(N3CCC(CN4CCN(c5ccc6c(c5)CN([C@H]5CCC(=O)NC5=O)C6=O)CC4)CC3)cc2)n(C)n1` (single isomer, unassigned) [Compound I-414], `CC(C)(O)[C@@H]1CCc2cc(O)ccc2[C@@H]1c1ccc(N2CCC(CN3CCN(c4ccc5c(c4)CN([C@H]4CCC(=O)NC4=O)C5=O)CC3)CC2)cc1` [Compound I-219, (S)-3-(5-(4-((1-(4-((1S,2R)-6-hydroxy-2-(2-hydroxypropan-2-yl)-1,2,3,4-tetrahydronaphthalen-1-yl)phenyl)piperidin-4-yl)methyl)piperazin-1-yl)-1-oxoisoindolin-2-yl)piperidine-2,6-dione] is higher in DC50: 0.37 nM for the first, at least 10000 nM for the second.

Going from `O=C1CCC(c2ccc(C3CC4(C3)CN(CC3CCN(c5ccc([C@@H]6c7ccc(O)cc7CC[C@@H]6c6ccccc6)cc5)CC3)C4)cc2)C(=O)N1` (stereo partly drawn) [Compound I-182, 3-(4-(2-((1-(4-((1R,2S)-6-hydroxy-2-phenyl-1,2,3,4-tetrahydronaphthalen-1-yl)phenyl)piperidin-4-yl)methyl)-2-azaspiro[3.3]heptan-6-yl)phenyl)piperidine-2,6-dione] to `O=C1CCC(c2ccc(N3CC[C@]4(CCN(CC5CCN(c6ccc([C@@H]7c8ccc(O)cc8CC[C@@H]7c7ccccc7)cc6)CC5)C4)C3)cc2)C(=O)N1` (single isomer, unassigned) [Compound I-279], the DC50 rises from 2 nM to 16.5 nM (8.2-fold).

`C[C@@]1(N2Cc3cc(N4CCN(CC5CCN(c6ccc([C@@H]7c8ccc(O)cc8CC[C@@H]7c7ccccc7)cc6)CC5)CC4)ccc3C2=O)CCC(=O)NC1=O` (single isomer, unassigned) [II-58] and `C[C@]1(N2Cc3cc(N4CCN(CC5CCN(c6ccc([C@@H]7c8ccc(O)cc8CC[C@@H]7c7ccccc7)cc6)CC5)CC4)ccc3C2=O)CCC(=O)NC1=O` (single isomer, unassigned) [II-57] cannot be ordered by DC50: at least 10000 nM for the first, at least 10000 nM for the second.

Going from `O=C1CC[C@H](N2Cc3cc(N4CCC(CN5CCC(n6cc([C@@H]7c8ccc(O)cc8CC[C@@H]7c7ccccc7)cn6)CC5)CC4)ccc3C2=O)C(=O)N1` (single isomer, unassigned) [Compound I-409] to `O=C1CC[C@H](N2Cc3cc(N4CCN(CC5CCN(c6ccc([C@H]7c8ccc(O)cc8CO[C@H]7c7ccccc7)cc6F)CC5)CC4)ccc3C2=O)C(=O)N1` (single isomer, unassigned) [Compound I-382], the DC50 falls from at least 10000 nM to 2 nM.

Compared with `Cc1cc(N2CCC(CN3CCN(c4ccc5c(c4)CN([C@H]4CCC(=O)NC4=O)C5=O)CC3)CC2)cc(F)c1[C@H]1c2ccc(O)cc2CC[C@H]1C1CCCCC1` (single isomer, unassigned) [Compound I-235], `O=C1CC[C@H](N2Cc3cc(N4CCN(CC5CCN(c6ccc(C7c8ccc(O)cc8CCN7C7CCCCC7)cc6)CC5)CC4)ccc3C2=O)C(=O)N1` (stereo partly drawn) [Compound I-9, (3S)-3-(5-(4-((1-(4-(2-cyclohexyl-6-hydroxy-1,2,3,4-tetrahydroisoquinolin-1-yl)phenyl)piperidin-4-yl)methyl)piperazin-1-yl)-1-oxoisoindolin-2-yl)piperidine-2,6-dione] is lower in DC50: at least 10000 nM for the first, 11 nM for the second.

`O=C1CC[C@H](N2Cc3cc(N4CCN(CC5CCN(c6ccc([C@H]7c8ccc(O)cc8C(F)(F)C[C@H]7c7ccccc7)cc6F)CC5)CC4)ccc3C2=O)C(=O)N1` [Compound I-328, (S)-3-(5-(4-((1-(4-((1S,2R)-4,4-difluoro-6-hydroxy-2-phenyl-1,2,3,4-tetrahydronaphthalen-1-yl)-2-fluorophenyl)piperidin-4-yl)methyl)piperazin-1-yl)-1-oxoisoindolin-2-yl)piperidine-2,6-dione] showed a DC50 of 9 nM.
